Measured values as given in patent US20260265246A1 (ICAHN SCHOOL OF MEDICINE AT MOUNT SINAI, priority 2021, published 2026).
Like-named read-outs stand apart in the source and are kept apart here.

Legend:
5HT2A receptor [1] = target: T1, 5HT2A receptor (Homo sapiens, UniProt P28223); test: cell-based; design: expressed in transfected cells; host or cells: HEK293T cells, transient co-transfection; details: for Emax: HEK-293T
5HT2A receptor [2] = target: T1, 5HT2A receptor; test: biochemical; format: binding; design: expressed in transfected cells; crude membranes
[3] = 5HTA Gq EC50 (nM), BRET2 Gαq dissociation, HEK293T
[4] = BRET2 Gαq dissociation, HEK293T, normalized to 5-HT, read-out: 5HTA Gq Emax (%)
[5] = 5HT2A Ki (nM), secondary binding assay, Cheng-Prusoff
[6] = 5HT2A Gq EC50 (nM), BRET2 Gαq dissociation, HEK293T cells
[7] = BRET2 Gαq dissociation, HEK293T cells, normalized to 5-HT, read-out: 5HT2A Gq Emax (%)
[8] = 5HT2A Ki (nM), secondary radioligand binding, Ki from IC50 by Cheng-Prusoff
[9] = read-out: 5HTA Gq Emax (%), BRET2 Gαq dissociation, HEK293T, normalized to 5-HT
[10] = secondary binding assay, Cheng-Prusoff, read-out: 5HT2A Ki
[11] = BRET2 Gαq dissociation, HEK293T, read-out: 5HTA Gq EC50

T1 sequence (P28223 whole entry): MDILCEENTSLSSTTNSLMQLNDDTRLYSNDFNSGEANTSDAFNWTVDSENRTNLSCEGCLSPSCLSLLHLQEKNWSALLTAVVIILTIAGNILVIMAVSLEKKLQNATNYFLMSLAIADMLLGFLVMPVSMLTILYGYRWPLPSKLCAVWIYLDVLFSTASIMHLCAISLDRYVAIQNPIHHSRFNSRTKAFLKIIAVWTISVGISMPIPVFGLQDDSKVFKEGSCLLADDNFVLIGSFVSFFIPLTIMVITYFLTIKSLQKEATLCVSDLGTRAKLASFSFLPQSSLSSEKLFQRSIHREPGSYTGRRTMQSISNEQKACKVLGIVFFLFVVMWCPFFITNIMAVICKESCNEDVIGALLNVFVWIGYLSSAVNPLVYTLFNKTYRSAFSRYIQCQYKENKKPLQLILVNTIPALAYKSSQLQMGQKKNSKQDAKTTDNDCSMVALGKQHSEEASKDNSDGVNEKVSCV

CN1CCOC(c2c[nH]c3c(Cl)cccc23)C1 (stereo not drawn) [Example 246, 2-(7-chloro-1H-indol-3-yl)-4-methylmorpholine]
EC50 (5HT2A receptor [1]; [3]): 620 nM
Emax (5HT2A receptor [1]; [4]): 69.6%
Ki (5HT2A receptor [2]; [5]): 2140 nM

Cc1ccc2[nH]cc(C3=CCCN(C)C3)c2n1 [Example 140, 5-methyl-3-(1-methyl-1,2,5,6-tetrahydropyridin-3-yl)-1H-pyrrolo[3,2-b]pyridine]
EC50 (5HT2A receptor [1]; [3]): 247 nM
Emax (5HT2A receptor [1]; [4]): 62.6%
Ki (5HT2A receptor [2]; [5]): 1130 nM

CCCN1CCC=C(c2n[nH]c3c(Cl)cccc23)C1 [Example 123, 7-chloro-3-(1-propyl-1,2,5,6-tetrahydropyridin-3-yl)-1H-indazole]
EC50 (5HT2A receptor [1]; [6]): 142 nM
Emax (5HT2A receptor [1]; [7]): 66.9%
Ki (5HT2A receptor [2]; [8]): 140 nM

Cc1cccc2c(C34CC3CN(C)C4)n[nH]c12 (stereo not drawn) [Example 227, 7-methyl-3-(3-methyl-3-azabicyclo[3.1.0]hexan-1-yl)-1H-indazole]
EC50 (5HT2A receptor [1]; [3]): 684 nM
Emax (5HT2A receptor [1]; [4]): 32.5%
Ki (5HT2A receptor [2]; [5]): 1450 nM

Fc1cc(Cl)c2[nH]nc(C34CNCCC3C4)c2c1 (stereo not drawn) [Example 196, 3-(3-azabicyclo[4.1.0]heptan-1-yl)-7-chloro-5-fluoro-1H-indazole]
EC50 (5HT2A receptor [1]; [3]): 220 nM
Emax (5HT2A receptor [1]; [4]): 67%
Ki (5HT2A receptor [2]; [5]): 910 nM

CCc1ccc2[nH]cc(C3=CCCNC3)c2c1 [Example 25, 5-ethyl-3-(1,2,5,6-tetrahydropyridin-3-yl)-1H-indole]
EC50 (5HT2A receptor [1]; [6]): 592 nM
Emax (5HT2A receptor [1]; [7]): 73.3%
Ki (5HT2A receptor [2]; [8]): 941 nM

Cc1cc(Cl)cc2c(C3CNC3)c[nH]c12 [Example 263, 3-(azetidin-3-yl)-5-chloro-7-methyl-1H-indole]
EC50 (5HT2A receptor [1]; [3]): 127 nM
Emax (5HT2A receptor [1]; [4]): 63.7%
Ki (5HT2A receptor [2]; [5]): 244 nM

Cc1cccc2c(C3CNC3)c[nH]c12 [Example 258, 3-(azetidin-3-yl)-7-methyl-1H-indole]
EC50 (5HT2A receptor [1]; [3]): 444 nM
Emax (5HT2A receptor [1]; [9]): 82.1%
Ki (5HT2A receptor [2]; [5]): 674 nM

Fc1cc(Cl)c2[nH]nc(C34CNCCC3C4(F)F)c2c1 (stereo not drawn) [Example 191, 7-chloro-3-(7,7-difluoro-3-azabicyclo[4.1.0]heptan-1-yl)-5-fluoro-1H-indazole]
EC50 (5HT2A receptor [1]; [3]): 1620 nM
Emax (5HT2A receptor [1]; [4]): 83%
Ki (5HT2A receptor [2]; [5]): 3040 nM

CCCc1cccc2c(C3=CCCN(C)C3)c[nH]c12 [Example 244, 3-(1-methyl-1,2,5,6-tetrahydropyridin-3-yl)-7-propyl-1H-indole]
EC50 (5HT2A receptor [1]; [3]): 397 nM
Emax (5HT2A receptor [1]; [9]): 77.2%
Ki (5HT2A receptor [2]; [5]): 1550 nM

Clc1cccc2c(C3=CC4CCC3NC4)n[nH]c12 (stereo not drawn) [Example 223, 6-(7-chloro-1H-indazol-3-yl)-2-azabicyclo[2.2.2]oct-5-ene]
EC50 (5HT2A receptor [1]; [3]): 717 nM
Emax (5HT2A receptor [1]; [9]): 89.7%
Ki (5HT2A receptor [2]; [5]): 1920 nM

Cc1ccc2[nH]cc(C3=CCCNC3)c2n1 [Example 139, 5-methyl-3-(1,2,5,6-tetrahydropyridin-3-yl)-1H-pyrrolo[3,2-b]pyridine]
EC50 (5HT2A receptor [1]; [3]): 785 nM
Emax (5HT2A receptor [1]; [4]): 112%
Ki (5HT2A receptor [2]; [5]): 4180 nM

Cn1cc(C2=CCCNC2)c2cccnc21 [Example 47, 1-methyl-3-(1,2,5,6-tetrahydropyridin-3-yl)-1H-pyrrolo[2,3-b]pyridine]
EC50 (5HT2A receptor [1]; [6]): 379 nM
Emax (5HT2A receptor [1]; [7]): 48.7%
Ki (5HT2A receptor [2]; [8]): 796 nM

C1=C(c2c[nH]c3ccncc23)CNCC1 [Example 141, 3-(1,2,5,6-tetrahydropyridin-3-yl)-1H-pyrrolo[3,2-c]pyridine]
EC50 (5HT2A receptor [1]; [3]): 631 nM
Emax (5HT2A receptor [1]; [4]): 91.3%
Ki (5HT2A receptor [2]; [5]): 739 nM

CCCN1CC=C(c2c[nH]c3c(Cl)cccc23)CC1 [Example 243, 7-chloro-3-(1-propyl-1,2,3,6-tetrahydropyridin-4-yl)-1H-indole]
EC50 (5HT2A receptor [1]; [3]): 104 nM
Emax (5HT2A receptor [1]; [9]): 41.9%
Ki (5HT2A receptor [2]; [5]): 27.2 nM

CN1CCC=C(c2c[nH]c3cnccc23)C1 [Example 135, 3-(1-methyl-1,2,5,6-tetrahydropyridin-3-yl)-1H-pyrrolo[2,3-c]pyridine]
EC50 (5HT2A receptor [1]; [3]): 1610 nM
Emax (5HT2A receptor [1]; [4]): 77.8%
Ki (5HT2A receptor [2]; [5]): 3540 nM

Fc1cccc2c(C34CNCCC3C4)n[nH]c12 (stereo not drawn) [Example 194, 3-(3-azabicyclo[4.1.0]heptan-1-yl)-7-fluoro-1H-indazole]
EC50 (5HT2A receptor [1]; [3]): 795 nM
Emax (5HT2A receptor [1]; [4]): 64.4%
Ki (5HT2A receptor [2]; [5]): 2480 nM

CC(F)(F)CN1CCC=C(c2n[nH]c3c(Cl)cccc23)C1 [Example 163, 7-chloro-3-(1-(2,2-difluoropropyl)-1,2,5,6-tetrahydropyridin-3-yl)-1H-indazole]
EC50 (5HT2A receptor [1]; [3]): 604 nM
Emax (5HT2A receptor [1]; [4]): 82.4%
Ki (5HT2A receptor [2]; [5]): > 10000 nM

Fc1cc(F)c2[nH]cc(C3CNC3)c2c1 [Example 264, 3-(azetidin-3-yl)-5,7-difluoro-1H-indole]
EC50 (5HT2A receptor [1]; [3]): 165 nM
Emax (5HT2A receptor [1]; [4]): 44.7%
Ki (5HT2A receptor [2]; [10]): 98.8 nM

FC1(F)C2CCNCC21c1n[nH]c2c(Cl)cccc12 (stereo not drawn) [Example 188, 7-chloro-3-(7,7-difluoro-3-azabicyclo[4.1.0]heptan-1-yl)-1H-indazole]
EC50 (5HT2A receptor [1]; [3]): 1460 nM
Emax (5HT2A receptor [1]; [9]): 83.7%
Ki (5HT2A receptor [2]; [5]): 2100 nM

CN1CCC=C(c2n[nH]c3ccc(C#N)cc23)C1 [Example 103, 3-(1-methyl-1,2,5,6-tetrahydropyridin-3-yl)-1H-indazole-5-carbonitrile]
EC50 (5HT2A receptor [1]; [6]): 612 nM
Emax (5HT2A receptor [1]; [7]): 64.9%
Ki (5HT2A receptor [2]; [8]): 1390 nM

CN1CCC=C(c2c[nH]c3c(O)cccc23)C1 [Example 60, 3-(1-methyl-1,2,5,6-tetrahydropyridin-3-yl)-1H-indol-7-ol]
EC50 (5HT2A receptor [1]; [6]): 440 nM
Emax (5HT2A receptor [1]; [7]): 64.3%
Ki (5HT2A receptor [2]; [8]): 795 nM

CCCN(CCC)C1CCC=C(c2n[nH]c3c(Cl)cccc23)C1 (stereo not drawn) [Example 172, 3-(7-chloro-1H-indazol-3-yl)-N,N-dipropylcyclohex-3-en-1-amine]
EC50 (5HT2A receptor [1]; [3]): 4020 nM
Emax (5HT2A receptor [1]; [4]): 66.4%
Ki (5HT2A receptor [2]; [5]): > 10000 nM

CCc1[nH]c2ccccc2c1C1=CCCN(C)C1 [Example 65, 2-ethyl-3-(1-methyl-1,2,5,6-tetrahydropyridin-3-yl)-1H-indole]
EC50 (5HT2A receptor [1]; [6]): 124 nM
Emax (5HT2A receptor [1]; [7]): 51.2%
Ki (5HT2A receptor [2]; [8]): 221 nM

Clc1cccc2c(C3=CCNCC3)n[nH]c12 [Example 241, 7-chloro-3-(1,2,3,6-tetrahydropyridin-4-yl)-1H-indazole]
EC50 (5HT2A receptor [1]; [11]): 65 nM
Emax (5HT2A receptor [1]; [4]): 63.4%
Ki (5HT2A receptor [2]; [5]): 376 nM

COc1cccc2c(C3=CCCN(Cc4ccccc4)C3)c[nH]c12 [Example 71, 3-(1-benzyl-1,2,5,6-tetrahydropyridin-3-yl)-7-methoxy-1H-indole]
EC50 (5HT2A receptor [1]; [6]): 530 nM
Emax (5HT2A receptor [1]; [7]): 65.2%
Ki (5HT2A receptor [2]; [8]): 448 nM

COc1cccc2c(C3=CCCN(C)C3)c[nH]c12 [Example 53, 7-methoxy-3-(1-methyl-1,2,5,6-tetrahydropyridin-3-yl)-1H-indole]
EC50 (5HT2A receptor [1]; [6]): 166 nM
Emax (5HT2A receptor [1]; [7]): 77.8%
Ki (5HT2A receptor [2]; [8]): 374 nM

Fc1cccc2c(C3CNC3)c[nH]c12 [Example 259, 3-(azetidin-3-yl)-7-fluoro-1H-indole]
EC50 (5HT2A receptor [1]; [3]): 944 nM
Emax (5HT2A receptor [1]; [9]): 81.6%
Ki (5HT2A receptor [2]; [5]): 168 nM

CCc1ccc2[nH]cc(C3=CCCN(C)C3)c2c1 [Example 26, 5-ethyl-3-(1-methyl-1,2,5,6-tetrahydropyridin-3-yl)-1H-indole]
EC50 (5HT2A receptor [1]; [6]): 177 nM
Emax (5HT2A receptor [1]; [7]): 64.2%
Ki (5HT2A receptor [2]; [8]): 166 nM

Clc1cccc2c(C34CNCC3C4)c[nH]c12 (single isomer, unassigned) [Example 278, 3-(3-azabicyclo[3.1.0]hexan-1-yl)-7-chloro-1H-indole]
5HTA Gq Emax (%) (5HT2A receptor [1]; BRET2 Gαq dissociation, HEK293T, normalized to 5-HT): 58.2%
EC50 (5HT2A receptor [1]; [11]): 9.23 nM
Ki (5HT2A receptor [2]; [10]): 33 nM

Clc1cccc2c(C3=CN4CCC3CC4)c[nH]c12 [Example 250, 3-(7-chloro-1H-indol-3-yl)-1-azabicyclo[2.2.2]oct-2-ene]
EC50 (5HT2A receptor [1]; [3]): 1290 nM
Emax (5HT2A receptor [1]; [4]): 73.1%
Ki (5HT2A receptor [2]; [5]): 1630 nM

CN1CC2CC2(c2n[nH]c3c(Cl)cccc23)C1 (stereo not drawn) [Example 183, 7-chloro-3-(3-methyl-3-azabicyclo[3.1.0]hexan-1-yl)-1H-indazole]
EC50 (5HT2A receptor [1]; [3]): 251 nM
Emax (5HT2A receptor [1]; [9]): 69.7%
Ki (5HT2A receptor [2]; [5]): 595 nM

CN1CC(c2c[nH]c3c(F)cccc23)C1 [Example 260, 7-fluoro-3-(1-methylazetidin-3-yl)-1H-indole]
EC50 (5HT2A receptor [1]; [3]): 422 nM
Emax (5HT2A receptor [1]; [4]): 63.1%
Ki (5HT2A receptor [2]; [5]): 357 nM

CCC(C)N1CCC=C(c2n[nH]c3c(Cl)cccc23)C1 (stereo not drawn) [Example 167, 3-(1-(sec-butyl)-1,2,5,6-tetrahydropyridin-3-yl)-7-chloro-1H-indazole]
EC50 (5HT2A receptor [1]; [3]): 173 nM
Emax (5HT2A receptor [1]; [4]): 25.7%
Ki (5HT2A receptor [2]; [5]): 525 nM

Cc1cccc2c(C34CNCCC3C4)c[nH]c12 (stereo not drawn) [Example 271, 3-(3-azabicyclo[4.1.0]heptan-1-yl)-7-methyl-1H-indole]
EC50 (5HT2A receptor [1]; [3]): 327 nM
Emax (5HT2A receptor [1]; [4]): 80.1%
Ki (5HT2A receptor [2]; [5]): 3150 nM

CC(C)c1cccc2c(C3CNC3)c[nH]c12 [Example 262, 3-(azetidin-3-yl)-7-isopropyl-1H-indole]
EC50 (5HT2A receptor [1]; [3]): 316 nM
Emax (5HT2A receptor [1]; [4]): 114%
Ki (5HT2A receptor [2]; [5]): 1910 nM

CCc1cccc2c(C3=CCCNC3)c(Cl)[nH]c12 [Example 66, 2-chloro-7-ethyl-3-(1,2,5,6-tetrahydropyridin-3-yl)-1H-indole]
EC50 (5HT2A receptor [1]; [6]): 213 nM
Emax (5HT2A receptor [1]; [7]): 79%
Ki (5HT2A receptor [2]; [8]): 115 nM

CCCN1CCC2CC2(c2n[nH]c3c(Cl)cccc23)C1 (stereo not drawn) [Example 182, 7-chloro-3-(3-propyl-3-azabicyclo[4.1.0]heptan-1-yl)-1H-indazole]
EC50 (5HT2A receptor [1]; [3]): 786 nM
Emax (5HT2A receptor [1]; [4]): 78.9%
Ki (5HT2A receptor [2]; [5]): 2470 nM

CN1CCCC=C(c2n[nH]c3c(Cl)cccc23)C1 [Example 211, 7-chloro-3-(1-methyl-2,5,6,7-tetrahydro-1H-azepin-3-yl)-1H-indazole]
EC50 (5HT2A receptor [1]; [3]): 732 nM
Emax (5HT2A receptor [1]; [4]): 59.9%
Ki (5HT2A receptor [2]; [5]): 1180 nM
